The source of these data is patent publication US11253537B2, “Polypeptide having the ability to form connections of glucosyl units in alpha-1,3 on an acceptor” (INSTITUT NATIONAL DE RECHERCHE POUR L'AGRICULTURE, …, priority 2013, dated 2022).

What all share (format): biochemical
The nature of test [1]: Acceptor reaction with sucrose and dextran 1500 Da; α-1,3 connections by proton NMR. The note with it: for factor multiplying the activity of the enzyme on addition of dextran 1500 Da as acceptor: compared to the activity measured on sucrose alone. The protocol: While nothing presaged that this protein had still an activity, the latter (as well as its truncated form) was also incubated in the presence of sucrose and a linear dextran (glucan composed exclusively of α-1,6 bonds) of a molecular weight of 1500 Da.
(§1) We incubated for 16 h at 30° C., enzyme in sucrose (from 25 g/L to 170 g/L) in the presence of dextrans of variable molecular weight (from 1500 Da to 2.10^6 Da) and of varying concentration of 30 g/L to 100 g/L.; the sucrose/acceptor (M/M) ratio varies depending on the desired connection rate in α-1,3. The reaction medium was buffered with a solution with final sodium acetate with 50 mM, pH 5.2. A sample at initial and final times of the reaction was conducted, heated at 95° C. for 5 minutes to stop the reaction and analysed by various chromatographic (HPAEC-PAD, HPSEC) and structural (proton NMR) techniques.
(§2) More specifically, monosaccharides, disaccharides, and small oligosaccharides (degree of polymerisation less than 20) were separated and quantified by HPAEC-PAD (High Performance Anion Exchange Chromatography with Pulsed Amperometric Detection) on column Dionex CarboPac PA-100. A sodium acetate gradient of 6 to 300 mM in 36 min, containing 150 mM of sodium hydroxide used to separate glucose, fructose, sucrose, leucrose, isomaltooligosaccharides, etc. Standard ranges of 5, 10, 15 and 20 mg·kg-1 of these sugars were performed to allow quantification. These samples were diluted for a total sugar concentration of 25 mg·kg-1.
Analyses by HPSEC (High Performance Size Exclusion Chromatography-) were used to estimate the molecular weight of oligosaccharide populations or of polymers synthesised during the reactions. The separation was done using two columns SHODEX (OH-Pack SB-805 and 802.5) arranged in series. Solutions of 1, 2.5, 5 and 10 gL−1 sucrose, fructose, maltoheptaose, Dextran 11.3 kDa, 68.4 kDa, 503 kDa, 2000 kDa served as benchmarks. The samples were diluted 10 times to reach a maximum concentration of 10 g·kg-1. A solution of 0.45 M NaNO3+1% (v/v) ethylene glycol in 0.3 mL·min-1 is used as an eluent, and the samples should be diluted in the mobile phase. Column and precolumn were maintained at 70° C., detection is performed by refractometry.
(§3) For the NMR analyses, the synthesised polymers were stored at −80° C. overnight and then be freeze-dried (CHRIST ALPHA apparatus 2-4). 10 mg of the powder obtained are then dissolved in 0.5 mL of deuterated water and analysed by proton NMR. The 1H NMR spectra were acquired on a spectrometer BRUKER AVANCE (500 MHz). The data were then treated with the TOPSPIN 3.0 software.

Test [2] is described as follows: Reaction of the enzyme on sucrose alone (HPAEC-PAD, HPSEC). The note with it: no acceptor.
From the text: The determination of the enzymatic activity of the polypeptide according to the invention can be determined by methods known to those skilled in the art, such as by use of the High Performance Liquid Chromatography Technique on reaction products with the polypeptide of the invention (MOULIS et al., J. Biol. Chem, 2006) or assay of reducing sugars by the method in dinitrosalycilic acid (SUMNER & HOWELL, 1935). More specifically, this enzymatic activity is expressed in glucansucrase units which represents the amount of enzyme which liberates one μmol of fructose per minute at 30° C. with a concentration of 100 g·L−1 sucrose and a buffer at pH 5.2 comprising 50 mM sodium acetate. This activity is preferably determined by measuring the initial rate of production of reducing sugars (fructose) by using the DNS method (SUMNER & HOWELL). To do this, a standard range of 0-2 g·L−1 of fructose is established. During kinetics, 100 μl of reaction medium are then sampled and the reaction is stopped by adding an equal volume of reagent. The samples were then heated for 5 min at 95° C., cooled in ice, diluted in half with water and the absorbance is read at 540 nm.
To characterise the functional properties of this putative transglucosylase, the enzyme was first implemented on sucrose alone, a natural substrate of enzymes of the GH70 family.
as §2, with “mg·kg-1. […]” for “mg·kg-1.”

Test [3] can be described thus: Screening of a library of acceptors with sucrose. The note with it: FOS and XOS as acceptors. The protocol: The enzyme α-1,3 BrS is put in the presence of its natural substrate (sucrose) and a panel of different acceptors, including dextrans connected in α-1.2 (BRISON et al., 2009), of mutans, of alternans, of reuterans, of fructans and of fructooligosaccharides, of polyphenols, of flavonoids, of amino acids. The reaction products are analysed by various chromatographic techniques (mass spectrometry, HPAEC-PAD) and by NMR.

Test [4] is described as follows: Acceptor reaction with sucrose and higher molecular weight dextrans; proton NMR. The note with it: dextran 68.4 kDa, 503 kDa and 2×10^6 Da. The protocol:
as §1, §3
Tests were performed out on particular dextran 68.4 kDa, 503 kDa and 2×10^6 Da. Based on proton NMR analyses, the high molecular weight dextrans have 50% of α-1,3 bonds (FIGS. 7 and 8). Here again we find the comb-like structure described in the '80 s in the work on the native glucan produced by the strain.

For “GH L. fallax: orthologue protein from Leuconostoc fallax KCTC 3537, about 54% overall identity with α-1,3 BrS”, the “connection rate in α-1,3 on a dextran 1500 Da” value in test [1] came out at 37%. The “ability to produce polymers of glucosyl units from sucrose alone” value (“ability to produce polymers” below) in test [2] was “inability to polymerise the glucosyl units”.

“α-1,3 BrS: transglucosylase of 1888 amino acids from L. citreum NRRL B-742 forming α-1,3 connections of glucosyl units on acceptors”: the “glycosylation of oligosaccharide acceptors” value in test [3] is recorded as “allows the glycosylation of oligosaccharides”. In addition, the “α-1,3 bonds of the high molecular weight dextrans after reaction” value in test [4] is recorded as 50%. For the same molecule, the “factor multiplying the activity of the enzyme on addition of dextran 1500 Da as acceptor” value in test [1] is on record as 26. Besides, the “substitution rate (α-1,3)” value in test [1] (sucrose/Dextran 1500 ratio 1/2) was “lower than 25%”. In addition, in test [1] (sucrose/Dextran 1500 ratio 1/3), the “rate of substitution (α-1,3)” value is listed as “below 15%”. In addition, the “degree of substitution (α-1,3)” value in test [1] (sucrose/Dextran 1500 ratio above 1, increasing the substrate concentration) is listed as around 50%; in test [1] (sucrose/Dextran 1500 ratio greater than or equal to 1), “about 40%”. The “ability to produce polymers” value in test [2] is given as “no ability to produce polymers of glucosyl units”.

B1: ΔPS ΔC-1313: form of α-1,3 BrS truncated of the signal peptide and C-terminal (position 1313) (protein)
chain: DTQTPVGTTQSQQDLTGQTGQDKPTTKEVIDKKEPVPQVSAQNVGDLSADAKTPKADDKQDTQPTNAQLPDQGNKQTNSNSDKGVKESTTAPVKTTDVPSKSVAPETNTSINGGQYVEKDGQFVYIDQSGKQVSGLQNIEGHTQYFDPKTGYQTKGELKNIDDNAYYFDKNSGNGRTFTKISNGSYSEKDGMWQYVDSHDKQPVKGLYDVEGNLQYFDLSTGNQAKHQIRSVDGVTYYFDADSGNATAFKAVTNGRYAEQTTKDKDGNETSYWAYLDNQGNAIKGLNDVNGEIQYFDEHTGEQLKGHTATVDGTTYYFEGNKGNLVSVVNTAPTGQYKINGDNVYYLDNNNEAIKGLYGINGNLNYFDLATGIQLKGQAKNIDGIGYYFDQNNGNGEYRYSLTGPVVKDVYSQHNAVNNLSANNFKNLVDGFLTAETWYRPAQILSHGTDWVASTDKDFRPLITVWWPNKDIQVNYLKLMQQIGILDNSVVFDTNNDQLVLNKGAESAQIGIEKKVSETGNTDWLNELLFAPNGNQPSFIKQQYLWNVDSEYPGGWFQGGYLAYQNSDLTPYANTNPDYRTHNGLEFLLANDVDNSNPVVQAEQLNWLYYLMNFGQITANDSNANFDSMRIDAISFVDPQIAKKAYDLLDKMYGLTDNEAVANQHISIVEAPKGETPITVEKQSALVESNWRDRMKQSLSKNATLDKLDPDPAINSLEKLVADDLVNRSQSSDKDSSTIPNYSIVHAHDKDIQDTVIHIMKIVNNNPNISMSDFTMQQLQNGLKAFYEDQHQSVKKYNQYNIPSAYALLLTNKDTVPRVFYGDMYQDYGDDLDGGQYMATKSIYYNAIEQMMKARLKYVAGGQIMAVTKIKNDGINKDGTNKSGEVLTSVRFGKDIMDAQGQGTAESRNQGIGVIVSNSSGLELKNSDSITLHMGIAHKNQAYRALMLTNDKGIVNYDQDNNAPIAWTNDHGDLIFTNQMINGQSDTAVKGYLNPEVAGYLAVWVPVGANDNQDARTVTTNQKNTDGKVLHTNAALDSKLMYEGFSNFQKMPTRGNQYANVVITKNIDLFKSWGITDFELAPQYRSSDGKDITDRFLDSIVQNGYGLSDRYDLGFKTPTKYGTDQDLRKAIERLHQAGMSVMADFVANQIYGLHADKEVVSAQHVNINGDTKLVVDPRYGTQMTVVNSVGGGDYQAKYGGEYLDTISKLYPGLLLDSNGQKIDLSTKIKEWSAKYLNGSNIPQVGMGYVLKDWNNGQYFHILDKEGQYSLPTQL
modifications: Delta PS, delta C-1313
B1: the “α-1,3 bonds of the high molecular weight dextrans after reaction” value in test [4] is on record as 50%. The “factor multiplying the activity of the enzyme on addition of dextran 1500 Da as acceptor” value in test [1] was 26. In addition, the “rate of α-1,3 bonds according to the sucrose/dextran 1500 Da ratio, compared with the whole enzyme” value in test [1] (truncated enzyme, same substrate (FIG. 6)) was “same results”. In addition, in test [2], the “ability to produce polymers” value is listed as “no ability to produce polymers of glucosyl units”.
